Reference: ChEMBL document CHEMBL3885861, “Open TG-GATES”

Species on record: Rattus norvegicus
Assay: Open TG-GATES - Regimen: Daily Repeat
Format: toxicity, organism-based, Sprague-Dawley
Design: regimen Daily Repeat, gender Male, age 6 weeks
Settings: in vivo, po, 0 mg/kg, route gavage, dose level Control; for APTT / Bas / Eos / Fbg / Hb / Ht / Lym / MCH / MCHC / MCV / Mono / Neu / PT / Plat / RBC / Ret / WBC: tissue Blood; for KIDNEY_L / KIDNEY_R / KIDNEY_TOTAL: tissue Kidney; for LIVER: tissue Liver; for A/G / ALP / ALT / AST / BUN / CRE / Ca / Cl / DBIL / GLC / IP / K / LDH / Na / PL / RALB / TBIL / TC / TG / TP / gamma-GTP: tissue Plasma

## CN(C)CCC=C1c2ccccc2CCc2ccccc21 [AMITRIPTYLINE]
72 h, time 3 day
  TERMINAL_BW: 226.6 g
  APTT: 14.9 s
  Bas: 0%
  Eos: 1.2%
  Fbg: 287.4 mg/dL
  Hb: 13 g/dL
  Ht: 39.9%
  Lym: 71.4%
  MCH: 21.3 pg
  MCHC: 32.7%
  MCV: 65.1 fL
  Mono: 3.4%
  Neu: 23.4%
  PT: 15.5 s
  Plat: 116.7 x10_4/uL
  RBC: 613.4 x10_4/ul
  Ret: 7.7%
  WBC: 71.8 x10_2/uL
  KIDNEY_L: 0.9 g
  KIDNEY_R: 0.9 g
  KIDNEY_TOTAL: 1.8 g
  LIVER: 10.7 g
  A/G: 0.8
  ALP: 1976.4 IU/L
  ALT: 54.6 IU/L
  AST: 74.2 IU/L
  BUN: 16.4 mg/dL
  CRE: 0.2 mg/dL
  Ca: 11.2 mg/dL
  Cl: 105.6 meq/L
  DBIL: 0.02 mg/dL
  GLC: 179.4 mg/dL
  IP: 7.9 mg/dL
  K: 4.1 meq/L
  LDH: 81 IU/L
  Na: 143.8 meq/L
  PL: 162.2 mg/dL
  RALB: 2.7 g/dL
  TBIL: 0.054 mg/dL
  TC: 83.2 mg/dL
  TG: 121.8 mg/dL
  TP: 5.9 g/dL
  gamma-GTP: 0.6 IU/L
[…], time 7 day
  TERMINAL_BW: 259.7 g
  APTT: 16.5 s
  Bas: 0.6%
  Eos: 1%
  Fbg: 302.6 mg/dL
  Hb: 13.5 g/dL
  Ht: 40.7%
  Lym: 78.8%
  MCH: 20.8 pg
  MCHC: 33.1%
  MCV: 62.8 fL
  Mono: 2.8%
  Neu: 16.4%
  PT: 15.2 s
  Plat: 109.9 x10_4/uL
  RBC: 648.8 x10_4/ul
  Ret: 5.7%
  WBC: 86.3 x10_2/uL
  KIDNEY_L: 1 g
  KIDNEY_R: 1 g
  KIDNEY_TOTAL: 2 g
  LIVER: 11.9 g
  A/G: 0.8
  ALP: 1482.8 IU/L
  ALT: 40.8 IU/L
  AST: 64.2 IU/L
  BUN: 16 mg/dL
  CRE: 0.2 mg/dL
  Ca: 10.9 mg/dL
  Cl: 106.4 meq/L
  DBIL: 0.014 mg/dL
  GLC: 185.8 mg/dL
  IP: 7.5 mg/dL
  K: 3.9 meq/L
  LDH: 56.4 IU/L
  Na: 143.8 meq/L
  PL: 165.8 mg/dL
  RALB: 2.6 g/dL
  TBIL: 0.052 mg/dL
  TC: 81.2 mg/dL
  TG: 131.2 mg/dL
  TP: 5.8 g/dL
  gamma-GTP: 0.6 IU/L
[…], time 14 day
  TERMINAL_BW: 318.6 g
  APTT: 17.3 s
  Bas: 0%
  Eos: 1%
  Fbg: 294.4 mg/dL
  Hb: 13.8 g/dL
  Ht: 41.5%
  Lym: 76.8%
  MCH: 20.9 pg
  MCHC: 33.3%
  MCV: 62.5 fL
  Mono: 2.2%
  Neu: 19%
  PT: 15.6 s
  Plat: 127.9 x10_4/uL
  RBC: 664.4 x10_4/ul
  Ret: 4.7%
  WBC: 94.5 x10_2/uL
  KIDNEY_L: 1.2 g
  KIDNEY_R: 1.2 g
  KIDNEY_TOTAL: 2.5 g
  LIVER: 14 g
  A/G: 0.8
  ALP: 1703.4 IU/L
  ALT: 41.8 IU/L
  AST: 68.6 IU/L
  BUN: 17.6 mg/dL
  CRE: 0.2 mg/dL
  Ca: 10.9 mg/dL
  Cl: 106 meq/L
  DBIL: 0.024 mg/dL
  GLC: 191.8 mg/dL
  IP: 6.3 mg/dL
  K: 4.3 meq/L
  LDH: 70.8 IU/L
  Na: 142.4 meq/L
  PL: 157 mg/dL
  RALB: 2.7 g/dL
  TBIL: 0.046 mg/dL
  TC: 71.6 mg/dL
  TG: 128.8 mg/dL
  TP: 6.1 g/dL
  gamma-GTP: 0.4 IU/L
[…], time 28 day
  TERMINAL_BW: 406.1 g
  APTT: 18.5 s
  Bas: 0.2%
  Eos: 1%
  Fbg: 253 mg/dL
  Hb: 14.9 g/dL
  Ht: 43.8%
  Lym: 77.2%
  MCH: 19.6 pg
  MCHC: 33.9%
  MCV: 57.7 fL
  Mono: 2.6%
  Neu: 18.2%
  PT: 16.2 s
  Plat: 104.1 x10_4/uL
  RBC: 760.8 x10_4/ul
  Ret: 2.5%
  WBC: 120.5 x10_2/uL
  KIDNEY_L: 1.4 g
  KIDNEY_R: 1.4 g
  KIDNEY_TOTAL: 2.8 g
  LIVER: 17 g
  A/G: 0.8
  ALP: 1151.8 IU/L
  ALT: 47.2 IU/L
  AST: 83 IU/L
  BUN: 17.6 mg/dL
  CRE: 0.2 mg/dL
  Ca: 10.5 mg/dL
  Cl: 104.8 meq/L
  DBIL: 0.02 mg/dL
  GLC: 198.6 mg/dL
  IP: 6.3 mg/dL
  K: 3.7 meq/L
  LDH: 116.2 IU/L
  Na: 143 meq/L
  PL: 138 mg/dL
  RALB: 2.8 g/dL
  TBIL: 0.058 mg/dL
  TC: 62 mg/dL
  TG: 134.8 mg/dL
  TP: 6.2 g/dL
  gamma-GTP: 0.4 IU/L
